biological target: T1, recombinant human NK3 receptor (Homo sapiens, UniProt P29371); assay: [3H]SR142801 competition binding assay; conditions: not given
T1 construct: expressed in transfected cells; host or cells: HEK293 cells, transient expression; membranes
T1 sequence (P29371 1-465): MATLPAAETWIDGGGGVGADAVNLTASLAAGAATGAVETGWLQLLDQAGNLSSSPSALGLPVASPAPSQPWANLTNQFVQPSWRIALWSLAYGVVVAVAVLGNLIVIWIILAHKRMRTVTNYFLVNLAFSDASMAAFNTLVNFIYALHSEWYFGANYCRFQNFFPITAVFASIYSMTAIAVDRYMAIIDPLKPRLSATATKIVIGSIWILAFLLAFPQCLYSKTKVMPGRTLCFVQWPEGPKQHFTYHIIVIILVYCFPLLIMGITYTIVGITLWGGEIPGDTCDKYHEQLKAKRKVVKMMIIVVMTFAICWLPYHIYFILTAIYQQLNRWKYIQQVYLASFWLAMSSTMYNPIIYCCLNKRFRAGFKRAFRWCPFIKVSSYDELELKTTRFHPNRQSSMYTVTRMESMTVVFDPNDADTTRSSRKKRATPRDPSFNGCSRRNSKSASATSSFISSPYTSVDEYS

Compared with CN(C(=O)Oc1ccc(Cl)cn1)[C@@H]1CN(C(=O)C2CCN(c3ccc(C#N)cn3)CC2)C[C@H]1c1ccc(Cl)cc1 [Example 244, [(3S,4R)-4-(4-Chloro-phenyl)-1-(5′-cyano-3,4,5,6-tetrahydro-2H-[1,2′]bipyridinyl-4-carbonyl)-pyrrolidin-3-yl]-methyl-carbamic acid 5-chloro-pyridin-2-yl ester], CN(C(=O)Oc1ccc(C#N)c(F)c1)[C@@H]1CN(C(=O)C2CCN(c3ccc(C#N)cn3)CC2)C[C@H]1c1ccc(Cl)cc1 [Example 245, [(3S,4R)-4-(4-Chloro-phenyl)-1-(5′-cyano-3,4,5,6-tetrahydro-2H-[1,2′]bipyridinyl-4-carbonyl)-pyrrolidin-3-yl]-methyl-carbamic acid 4-cyano-3-fluoro-phenyl ester] is 19-fold lower in Ki: 20.9 nM for the first, 1.1 nM for the second.

CC(=O)N1CCC(C(=O)N2C[C@@H](N(C)C(=O)Oc3ccc(F)cc3)[C@H](c3ccc(Cl)cc3)C2)CC1 [Example 246, [(3S,4R)-1-(1-Acetyl-piperidine-4-carbonyl)-4-(4-chloro-phenyl)-pyrrolidin-3-yl]-methyl-carbamic acid 4-fluoro-phenyl ester] and CN(C(=O)Oc1ccc(F)cc1)[C@@H]1CN(C(=O)C2CCN(C(=O)CC#N)CC2)C[C@H]1c1ccc(Cl)cc1 [Example 253, {(3S,4R)-4-(4-Chloro-phenyl)-1-[1-(2-cyano-acetyl)-piperidine-4-carbonyl]-pyrrolidin-3-yl}-methyl-carbamic acid 4-fluoro-phenyl ester] are within 1.5-fold of each other in Ki: 2.3 nM for the first, 1.8 nM for the second.

First: CN(C(=O)Oc1ccc(F)cc1)[C@@H]1CN(C(=O)C2CCN(C(=O)C3CCC3)CC2)C[C@H]1c1ccc(Cl)cc1 [Example 247, [(3S,4R)-4-(4-Chloro-phenyl)-1-(1-cyclobutanecarbonyl-piperidine-4-carbonyl)-pyrrolidin-3-yl]-methyl-carbamic acid 4-fluoro-phenyl ester]
Second: CN(C(=O)Oc1ccc(F)cc1)[C@@H]1CN(C(=O)C2CCN(C(=O)C3CCOCC3)CC2)C[C@H]1c1ccc(Cl)cc1 [Example 257, {(3S,4R)-4-(4-Chloro-phenyl)-1-[1-(tetrahydro-pyran-4-carbonyl)-piperidine-4-carbonyl]-pyrrolidin-3-yl}-methyl-carbamic acid 4-fluoro-phenyl ester]
The Ki of the first is 2.4-fold lower: 0.9 nM for the first, 2.2 nM for the second.

CN(C(=O)Oc1ccc(F)cc1)[C@@H]1CN(C(=O)C2CCN(C(=O)C3(C)COC3)CC2)C[C@H]1c1ccc(Cl)cc1 [Example 248, {(3S,4R)-4-(4-Chloro-phenyl)-1-[1-(3-methyl-oxetane-3-carbonyl)-piperidine-4-carbonyl]-pyrrolidin-3-yl}-methyl-carbamic acid 4-fluoro-phenyl ester] and CN(C(=O)Oc1ccc(F)cc1)[C@@H]1CN(C(=O)C2CCN(C(=O)C3(C#N)CC3)CC2)C[C@H]1c1ccc(Cl)cc1 [Example 254, {(3S,4R)-4-(4-Chloro-phenyl)-1-[1-(1-cyano-cyclopropanecarbonyl)-piperidine-4-carbonyl]-pyrrolidin-3-yl}-methyl-carbamic acid 4-fluoro-phenyl ester] are within 1.5-fold of each other in Ki: 2.8 nM for the first, 2 nM for the second.

CN(C(=O)Oc1ccc(F)cc1)[C@@H]1CN(C(=O)C2CCN(C(=O)C3CC(F)C3)CC2)C[C@H]1c1ccc(Cl)cc1 (stereo partly drawn) [Example 249, {(3S,4R)-4-(4-Chloro-phenyl)-1-[1-(3-fluoro-cyclobutanecarbonyl)-piperidine-4-carbonyl]-pyrrolidin-3-yl}-methyl-carbamic acid 4-fluoro-phenyl ester] and COC1CC(C(=O)N2CCC(C(=O)N3C[C@@H](N(C)C(=O)Oc4ccc(F)cc4)[C@H](c4ccc(Cl)cc4)C3)CC2)C1 (stereo partly drawn) [Example 251, {(3S,4R)-4-(4-Chloro-phenyl)-1-[1-(3-methoxy-cyclobutanecarbonyl)-piperidine-4-carbonyl]-pyrrolidin-3-yl}-methyl-carbamic acid 4-fluoro-phenyl ester] are within 1.5-fold of each other in Ki: 1.9 nM for the first, 2.2 nM for the second.

Compared with CN(C(=O)Oc1ccc(F)cc1)[C@@H]1CN(C(=O)C2CCN(C(=O)C3CC(F)(F)C3)CC2)C[C@H]1c1ccc(Cl)cc1 [Example 250, {(3S,4R)-4-(4-Chloro-phenyl)-1-[1-(3,3-difluoro-cyclobutanecarbonyl)-piperidine-4-carbonyl]-pyrrolidin-3-yl}-methyl-carbamic acid 4-fluoro-phenyl Ester], CN(C(=O)Oc1ccc(F)cc1)[C@@H]1CN(C(=O)C2CCN(C(=O)C3CC3(F)F)CC2)C[C@H]1c1ccc(Cl)cc1 (stereo partly drawn) [Example 256, {(3S,4R)-4-(4-Chloro-phenyl)-1-[1-(2,2-difluoro-cyclopropanecarbonyl)-piperidine-4-carbonyl]-pyrrolidin-3-yl}-methyl-carbamic acid 4-fluoro-phenyl ester] is 1.9-fold higher in Ki: 1.4 nM for the first, 2.6 nM for the second. The first binds more tightly here.

CN(C(=O)Oc1ccc(F)cc1)[C@@H]1CN(C(=O)C2CCN(C(=O)C3(C(F)(F)F)CCC3)CC2)C[C@H]1c1ccc(Cl)cc1 [Example 252, {(3S,4R)-4-(4-Chloro-phenyl)-1-[1-(1-trifluoromethyl-cyclobutanecarbonyl)-piperidine-4-carbonyl]-pyrrolidin-3-yl}-methyl-carbamic acid 4-fluoro-phenyl ester] and CN(C(=O)Oc1ccc(F)cc1)[C@@H]1CN(C(=O)C2CCN(C(=O)C3(C(F)(F)F)CC3)CC2)C[C@H]1c1ccc(Cl)cc1 [Example 255, {(3S,4R)-4-(4-Chloro-phenyl)-1-[1-(1-trifluoromethyl-cyclopropanecarbonyl)-piperidine-4-carbonyl]-pyrrolidin-3-yl}-methyl-carbamic acid 4-fluoro-phenyl ester] are within 1.5-fold of each other in Ki: 2.7 nM for the first, 2.5 nM for the second.

Compared with CN(C(=O)Oc1ccc(F)cc1)[C@@H]1CN(C(=O)C2CCN(C(=O)C3CCOC(C)(C)C3)CC2)C[C@H]1c1ccc(Cl)cc1 (stereo partly drawn) [Example 258, {(3S,4R)-4-(4-Chloro-phenyl)-1-[1-(2,2-dimethyl-tetrahydro-pyran-4-carbonyl)-piperidine-4-carbonyl]-pyrrolidin-3-yl}-methyl-carbamic acid 4-fluoro-phenyl ester], CN(C(=O)Oc1ccc(F)cc1)[C@@H]1CN(C(=O)C2CCN(C(=O)C3CC3(C)C)CC2)C[C@H]1c1ccc(Cl)cc1 (stereo partly drawn) [Example 260, {(3S,4R)-4-(4-Chloro-phenyl)-1-[1-(2,2-dimethyl-cyclopropanecarbonyl)-piperidine-4-carbonyl]-pyrrolidin-3-yl}-methyl-carbamic acid 4-fluoro-phenyl ester] is 1.9-fold lower in Ki: 2.9 nM for the first, 1.5 nM for the second. The second binds more tightly here.

COCC1(C(=O)N2CCC(C(=O)N3C[C@@H](N(C)C(=O)Oc4ccc(F)cc4)[C@H](c4ccc(Cl)cc4)C3)CC2)CC1 [Example 259, {(3S,4R)-4-(4-Chloro-phenyl)-1-[1-(1-methoxymethyl-cyclopropanecarbonyl)-piperidine-4-carbonyl]-pyrrolidin-3-yl}-methyl-carbamic acid 4-fluoro-phenyl ester] gave a Ki of 3.8 nM.

same assay, conditions: hNK-3 receptor affinity; membranes from HEK293 cells transiently expressing recombinant human NK3 receptor; [3H]SR142801; Cheng-Prussoff; read-out: Data Ki

CN(C(=O)OC1(C)CCCC1)[C@@H]1CN(C(=O)C2CCN(c3ccc(C#N)cn3)CC2)C[C@H]1c1ccc(Cl)cc1 [Example 243, [(3S,4R)-4-(4-Chloro-phenyl)-1-(5′-cyano-3,4,5,6-tetrahydro-2H-[1,2′]bipyridinyl-4-carbonyl)-pyrrolidin-3-yl]-methyl-carbamic acid 1-methyl-cyclopentyl ester] was tested, and the Ki was 47.2 nM.

From patent publication US9226916B2, “Pyrrolidine derivatives” (HOFFMANN-LA ROCHE INC., priority 2009, dated 2016)
